Measured values as given in ChEMBL document CHEMBL6083262, “Stereorandomized Oncocins with Preserved Ribosome Binding and Antibacterial Activity” (J Med Chem, 2024).
Values after ≈ are worked out from the molar mass of the structure shown. Active and inactive are the calls of the source. No cut-off for these calls is given here. Non-standard residues stand in square brackets, D forms with d. Residues, ends and D or L forms follow the SMILES beside them. ξ: configuration not given here. ξP = O=C(O)C1CCCN1

Key:
[1] = tested on: Klebsiella pneumoniae; test: Antimicrobial activity against Klebsiella pneumoniae NCTC 418 incubated for 16 to 20 hrs in full muller hinton medium by broth microdilution method; assay type: functional; settings: time 16-20 hrs
[2] = tested on: Pseudomonas aeruginosa; test: Antimicrobial activity against Pseudomonas aeruginosa PAO1 incubated for 16 to 20 hrs in full muller hinton medium by broth microdilution method; assay type: functional; settings: time 16-20 hrs
[3] = tested on: Acinetobacter baumannii; test: Antimicrobial activity against Acinetobacter baumannii ATCC 19606 incubated for 16 to 20 hrs in full muller hinton medium by broth microdilution method; assay type: functional; settings: time 16-20 hrs
[4] = tested on: Staphylococcus aureus; test: Antimicrobial activity against methicillin-resistant Staphylococcus aureus COL incubated for 16 to 20 hrs in full muller hinton medium by broth microdilution method; assay type: functional; settings: time 16-20 hrs
[5] = tested on: Klebsiella pneumoniae; test: Antimicrobial activity against Klebsiella pneumoniae NCTC 418 incubated for 16 to 20 hrs in 12.5 % muller hinton medium by broth microdilution method; assay type: functional; settings: time 16-20 hrs
[6] = tested on: Pseudomonas aeruginosa; test: Antimicrobial activity against Pseudomonas aeruginosa PAO1 incubated for 16 to 20 hrs in 12.5 % muller hinton medium by broth microdilution method; assay type: functional; settings: time 16-20 hrs
[7] = Hemolytic activity in human RBC incubated for 4 hrs; assay type: toxicity, cell-based; settings: erythrocyte
[8] = tested on: Staphylococcus aureus; test: Antimicrobial activity against methicillin-resistant Staphylococcus aureus COL incubated for 16 to 20 hrs in 12.5 % muller hinton medium by broth microdilution method; assay type: functional; settings: time 16-20 hrs
[9] = tested on: Escherichia coli; test: Antimicrobial activity against Escherichia coli W3110 incubated for 16 to 20 hrs in 12.5 % muller hinton medium by broth microdilution method; assay type: functional; settings: time 16-20 hrs
[10] = tested on: Escherichia coli; test: Bacteriostatic activity against Escherichia coli at 8 times MIC in full muller hinton medium by Time-kill assay; assay type: functional, organism-based
[11] = tested on: Klebsiella pneumoniae; test: Bacteriostatic activity against Klebsiella pneumoniae at 8 times MIC in full muller hinton medium by Time-kill assay; assay type: functional, organism-based
[12] = tested on: Escherichia coli; test: Bacteriostatic activity against Escherichia coli assessed as detachment of inner membrane from outer membrane by measuring a large void at 8 times MIC in full muller hinton medium by transmission electron microscopic analysis; assay type: functional, organism-based
[13] = tested on: Klebsiella pneumoniae; test: Bacteriostatic activity against Klebsiella pneumoniae assessed as detachment of inner membrane from outer membrane by measuring a large void at 8 times MIC in full muller hinton medium by transmission electron microscopic analysis; assay type: functional, organism-based
[14] = tested on: Escherichia coli; test: Bacteriostatic activity against Escherichia coli assessed as small intracellular vesicles at 8 times MIC in full muller hinton medium by transmission electron microscopic analysis; assay type: functional, organism-based
[15] = tested on: Klebsiella pneumoniae; test: Bacteriostatic activity against Klebsiella pneumoniae assessed as small intracellular vesicles at 8 times MIC in full muller hinton medium by transmission electron microscopic analysis; assay type: functional, organism-based
[16] = tested on: Escherichia coli; test: Bacteriostatic activity against Escherichia coli assessed as membrane perturbation at 8 times MIC in full muller hinton medium by transmission electron microscopic analysis; assay type: functional, organism-based
[17] = tested on: Klebsiella pneumoniae; test: Bacteriostatic activity against Klebsiella pneumoniae assessed as membrane perturbation at 8 times MIC in full muller hinton medium by transmission electron microscopic analysis; assay type: functional, organism-based

| SMILES | MIC [1] [µg/mL] | MIC [2] [µg/mL] | MIC [3] [µg/mL] | MIC [4] [µg/mL] | MIC [5] [µg/mL] | MIC [6] [µg/mL] | MHC [7] [µg/mL] | MIC [8] [µg/mL] | MIC [9] [µg/mL] | Activity [10] | Activity [11] | Activity [12] | Activity [13] | Activity [14] | Activity [15] | Activity [16] | Activity [17] |
| --- | --- | --- | --- | --- | --- | --- | --- | --- | --- | --- | --- | --- | --- | --- | --- | --- | --- |
| CC[C@H](C)[C@H](NC(=O)[C@H](CCCNC(=N)N)NC(=O)[C@H](CCCNC(=N)N)NC(=O)[C@@H]1CCCN1C(=O)[C@@H]1CCCN1C(=O)[C@H](CCCNC(=N)N)NC(=O)[C@@H]1CCCN1C(=O)[C@H](CCCNC(=N)N)NC(=O)[C@@H]1CCCN1C(=O)[C@H](CC(C)C)NC(=O)[C@H](Cc1ccc(O)cc1)NC(=O)[C@H]1CCCN1C(=O)[C@@H]1CCCN1C(=O)[C@H](CCCCN)NC(=O)[C@H](CC(=O)O)NC(=O)[C@@H](N)C(C)C)C(=O)N[C@@H](Cc1ccc(O)cc1)C(=O)N[C@@H](CC(N)=O)C(=O)N[C@@H](CCCNC(=N)N)C(N)=O (H-VDKP[dP]YLPRPRPPRRIYNR-NH2) | > 64 | > 64 | > 64 | > 64 | > 16 | > 16 | > 1000 |  |  |  |  |  |  |  |  |  |  |
| CC[C@H](C)[C@H](NC(=O)[C@H](CCCNC(=N)N)NC(=O)[C@H](CCCNC(=N)N)NC(=O)[C@@H]1CCCN1C(=O)[C@@H]1CCCN1C(=O)[C@H](CCCNC(=N)N)NC(=O)[C@@H]1CCCN1C(=O)[C@H](CCCNC(=N)N)NC(=O)[C@@H]1CCCN1C(=O)[C@H](CC(C)C)NC(=O)[C@H](Cc1ccc(O)cc1)NC(=O)[C@@H]1CCCN1C(=O)[C@H]1CCCN1C(=O)[C@H](CCCCN)NC(=O)[C@H](CC(=O)O)NC(=O)[C@@H](N)C(C)C)C(=O)N[C@@H](Cc1ccc(O)cc1)C(=O)N[C@@H](CC(N)=O)C(=O)N[C@@H](CCCNC(=N)N)C(N)=O (H-VDK[dP]PYLPRPRPPRRIYNR-NH2) |  | > 64 |  | > 64 |  | > 16 | > 1000 |  |  |  |  |  |  |  |  |  |  |
| CC[C@H](C)[C@H](NC(=O)[C@H](CCCNC(=N)N)NC(=O)[C@H](CCCNC(=N)N)NC(=O)[C@@H]1CCCN1C(=O)[C@@H]1CCCN1C(=O)[C@H](CCCNC(=N)N)NC(=O)[C@@H]1CCCN1C(=O)[C@H](CCCNC(=N)N)NC(=O)[C@@H]1CCCN1C(=O)[C@H](CC(C)C)NC(=O)[C@H](Cc1ccc(O)cc1)NC(=O)[C@H]1CCCN1C(=O)[C@H]1CCCN1C(=O)[C@H](CCCCN)NC(=O)[C@H](CC(=O)O)NC(=O)[C@@H](N)C(C)C)C(=O)N[C@@H](Cc1ccc(O)cc1)C(=O)N[C@@H](CC(N)=O)C(=O)N[C@@H](CCCNC(=N)N)C(N)=O (H-VDK[dP][dP]YLPRPRPPRRIYNR-NH2) | > 64 | > 64 | > 64 | > 64 | > 16 | > 16 | > 1000 | > 64 |  |  |  |  |  |  |  |  |  |
| CC[C@H](C)[C@H](NC(=O)[C@H](CCCNC(=N)N)NC(=O)[C@H](CCCNC(=N)N)NC(=O)[C@@H]1CCCN1C(=O)[C@@H]1CCCN1C(=O)[C@H](CCCNC(=N)N)NC(=O)[C@@H]1CCCN1C(=O)[C@H](CCCNC(=N)N)NC(=O)[C@@H]1CCCN1C(=O)[C@H](CC(C)C)NC(=O)[C@H](Cc1ccc(O)cc1)NC(=O)C1CCCN1C(=O)C1CCCN1C(=O)[C@H](CCCCN)NC(=O)[C@H](CC(=O)O)NC(=O)[C@@H](N)C(C)C)C(=O)N[C@@H](Cc1ccc(O)cc1)C(=O)N[C@@H](CC(N)=O)C(=O)N[C@@H](CCCNC(=N)N)C(N)=O (some centres not stated) (H-VDK[ξP][ξP]YLPRPRPPRRIYNR-NH2) |  | > 64 |  | > 64 | 8 (≈ 3.35 µM) | > 16 | > 1000 |  | 4 (≈ 1.67 µM) |  |  |  |  |  |  |  |  |
| CC(C)C[C@H](NC(=O)[C@H](CC(C)C)NC(=O)[C@H](CC(C)C)NC(=O)[C@@H](CCCCN)NC(=O)[C@H](CC(C)C)NC(=O)[C@H](CC(C)C)NC(=O)[C@@H](CCCCN)NC(=O)[C@H](CC(C)C)NC(=O)[C@H](CC(C)C)NC(=O)[C@@H](CCCCN)NC(=O)[C@H](N)CCCCN)C(N)=O (H-[dK][dK]LL[dK]LL[dK]LLL-NH2) | 8 (≈ 6.05 µM) | 8 (≈ 6.05 µM) | 2.4 (≈ 1.82 µM) |  |  |  | 1000 |  |  | Active | Active | Active | Active | Active | Active | Active; Few Membrane Perturbation Observed | Active; Few Membrane Perturbation Observed |
